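A five-concentration, 48-hour dose response in 96-well plates underlies each endpoint, interpolated linearly between surrounding concentrations. The concentration for 50% growth inhibition is given as GI50.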 The source made the active and inactive calls. Cut-off read from the data, not from the text of the source: active = GI50 up to about 1.1 µM and inactive = higher.
Key:
Experiment in all cases: NCI-60 cell line screen, 48 h
KM12 = tested on: KM12
UO-31 = tested on: UO-31
MCF7 = tested on: MCF7
SW-620 = tested on: SW-620
HCT-15 = tested on: HCT-15
MDA-MB-435 = tested on: MDA-MB-435
HT-29 = tested on: HT-29
RPMI-8226 = tested on: RPMI-8226
IGROV-1 = tested on: IGROV-1
SNB-75 = tested on: SNB-75
HOP-92 = tested on: HOP-92
SNB-19 = tested on: SNB-19
CCRF-CEM = tested on: CCRF-CEM
OVCAR-4 = tested on: OVCAR-4
LOX IMVI = tested on: LOX IMVI
BT-549 = tested on: BT-549
RXF 393 = tested on: RXF 393
OVCAR-5 = tested on: OVCAR-5
Malme-3M = tested on: Malme-3M
SR = tested on: SR

CC1(C)CC2=NO[Se]3=C2C(=NO3)C1
GI50 (KM12): 2.64 µM (inactive)
GI50 (UO-31): 2.98 µM (inactive)
GI50 (MCF7): 3.27 µM (inactive)
GI50 (SW-620): 3.16 µM (inactive)
GI50 (HCT-15): 0.811 µM
GI50 (MDA-MB-435): 3.43 µM (inactive)
GI50 (HT-29): 0.929 µM (active)
GI50 (RPMI-8226): 3.14 µM (inactive)
GI50 (IGROV-1): 2.72 µM (inactive)
GI50 (SNB-75): 2.68 µM (inactive)
GI50 (HOP-92): 2.63 µM (inactive)
GI50 (SNB-19): 4.08 µM (inactive)
GI50 (CCRF-CEM): 3.06 µM (inactive)
GI50 (OVCAR-4): 3.41 µM (inactive)
GI50 (LOX IMVI): 1.6 µM (inactive)
GI50 (BT-549): 1.47 µM (inactive)
GI50 (RXF 393): 3.15 µM (inactive)
GI50 (OVCAR-5): 5.11 µM (inactive)

O=C(CSC1=NCCN1)Nc1ccccc1
GI50 (KM12): 48 µM (inactive)
GI50 (UO-31): 27.4 µM (inactive)
GI50 (Malme-3M): 24.8 µM (inactive)
GI50 (SW-620): 25.8 µM (inactive)
GI50 (HCT-15): 29.2 µM
GI50 (MDA-MB-435): 34.8 µM (inactive)
GI50 (HT-29): 31.4 µM (inactive)
GI50 (RPMI-8226): 41.2 µM (inactive)
GI50 (IGROV-1): 33.4 µM (inactive)
GI50 (SNB-75): 21.5 µM (inactive)
GI50 (HOP-92): 26.8 µM (inactive)
GI50 (SNB-19): 69.3 µM (inactive)
GI50 (CCRF-CEM): 67.9 µM (inactive)
GI50 (OVCAR-4): 65.8 µM (inactive)
GI50 (SR): 44.3 µM (inactive)
GI50 (LOX IMVI): 18 µM (inactive)
GI50 (BT-549): 24.5 µM (inactive)
GI50 (RXF 393): 13.8 µM (inactive)
GI50 (OVCAR-5): 29.3 µM (inactive)

O=C1NC(N/N=C/c2ccccc2)=N/C1=C\c1ccco1
GI50 (KM12): 47.6 µM (inactive)
GI50 (UO-31): 46.8 µM (inactive)
GI50 (Malme-3M): > 100 µM (inactive)
GI50 (MCF7): 40.2 µM (inactive)
GI50 (SW-620): 46 µM (inactive)
GI50 (HCT-15): 40.6 µM
GI50 (MDA-MB-435): 51.9 µM (inactive)
GI50 (HT-29): 51.9 µM (inactive)
GI50 (RPMI-8226): 21.1 µM (inactive)
GI50 (IGROV-1): 16.9 µM (inactive)
GI50 (SNB-75): 47.8 µM (inactive)
GI50 (HOP-92): 11.3 µM (inactive)
GI50 (SNB-19): 36.5 µM (inactive)
GI50 (CCRF-CEM): 25.6 µM (inactive)
GI50 (OVCAR-4): 38.5 µM (inactive)
GI50 (BT-549): 23.7 µM (inactive)
GI50 (RXF 393): 25.1 µM (inactive)
GI50 (OVCAR-5): > 100 µM (inactive)

O=C(O)c1nc2ccccc2nc1Nc1ccc(Cl)c(Cl)c1
GI50 (KM12): 10.8 µM (inactive)
GI50 (UO-31): 15.6 µM (inactive)
GI50 (Malme-3M): 18.4 µM (inactive)
GI50 (SW-620): 31.7 µM (inactive)
GI50 (HCT-15): 13.1 µM
GI50 (MDA-MB-435): 28.4 µM (inactive)
GI50 (RPMI-8226): 35.3 µM (inactive)
GI50 (IGROV-1): 20.5 µM (inactive)
GI50 (SNB-75): 56.5 µM (inactive)
GI50 (HOP-92): 16.1 µM (inactive)
GI50 (SNB-19): 24.9 µM (inactive)
GI50 (CCRF-CEM): 17.8 µM (inactive)
GI50 (SR): 47.9 µM (inactive)
GI50 (LOX IMVI): 28.8 µM (inactive)
GI50 (BT-549): 16.1 µM (inactive)
GI50 (RXF 393): 25.4 µM (inactive)
GI50 (OVCAR-5): 39.6 µM (inactive)

COC(=O)CCc1c(Cc2ccc[nH]2)[nH]c(C(=O)OCc2ccccc2)c1C
GI50 (KM12): 16.3 µM (inactive)
GI50 (Malme-3M): 18.9 µM (inactive)
GI50 (MCF7): 18.5 µM (inactive)
GI50 (SW-620): 21.6 µM (inactive)
GI50 (HCT-15): 16.1 µM
GI50 (MDA-MB-435): 18.3 µM (inactive)
GI50 (HT-29): 20.4 µM (inactive)
GI50 (RPMI-8226): 39.6 µM (inactive)
GI50 (IGROV-1): 15.6 µM (inactive)
GI50 (HOP-92): 23 µM (inactive)
GI50 (SNB-19): 28.2 µM (inactive)
GI50 (CCRF-CEM): 60.7 µM (inactive)
GI50 (OVCAR-4): 11.9 µM (inactive)
GI50 (SR): 30.8 µM (inactive)
GI50 (LOX IMVI): 19.7 µM (inactive)
GI50 (RXF 393): 20.8 µM (inactive)
GI50 (OVCAR-5): 35.9 µM (inactive)

C#CCOC(=O)C(N)C(C)O (stereo not drawn)
GI50 (KM12): > 100 µM (inactive)
GI50 (UO-31): > 100 µM (inactive)
GI50 (Malme-3M): > 100 µM (inactive)
GI50 (MCF7): > 100 µM (inactive)
GI50 (SW-620): > 100 µM (inactive)
GI50 (MDA-MB-435): > 100 µM (inactive)
GI50 (HT-29): > 100 µM (inactive)
GI50 (RPMI-8226): > 100 µM (inactive)
GI50 (IGROV-1): > 100 µM (inactive)
GI50 (SNB-75): > 100 µM (inactive)
GI50 (HOP-92): > 100 µM (inactive)
GI50 (CCRF-CEM): > 100 µM (inactive)
GI50 (LOX IMVI): > 100 µM (inactive)
GI50 (BT-549): > 100 µM (inactive)
GI50 (RXF 393): > 100 µM (inactive)
GI50 (OVCAR-5): > 100 µM (inactive)

CC(CO)CCNc1ncnc2c1ncn2CCC#N (stereo not drawn)
GI50 (KM12): > 100 µM (inactive)
GI50 (UO-31): > 100 µM (inactive)
GI50 (Malme-3M): > 100 µM (inactive)
GI50 (MCF7): > 100 µM (inactive)
GI50 (SW-620): > 100 µM (inactive)
GI50 (MDA-MB-435): > 100 µM (inactive)
GI50 (HT-29): > 100 µM (inactive)
GI50 (RPMI-8226): > 100 µM (inactive)
GI50 (IGROV-1): > 100 µM (inactive)
GI50 (SNB-75): > 100 µM (inactive)
GI50 (HOP-92): > 100 µM (inactive)
GI50 (SNB-19): > 100 µM (inactive)
GI50 (CCRF-CEM): > 100 µM (inactive)
GI50 (OVCAR-4): > 100 µM (inactive)
GI50 (SR): > 100 µM (inactive)
GI50 (LOX IMVI): > 100 µM (inactive)
GI50 (RXF 393): > 100 µM (inactive)
GI50 (OVCAR-5): > 100 µM (inactive)

CC(=O)OC(Cn1cncn1)(Cn1cncn1)c1ccc(Cl)cc1Cl
GI50 (KM12): > 100 µM (inactive)
GI50 (UO-31): > 100 µM (inactive)
GI50 (MCF7): > 100 µM (inactive)
GI50 (SW-620): > 100 µM (inactive)
GI50 (HCT-15): > 100 µM
GI50 (MDA-MB-435): > 100 µM (inactive)
GI50 (HT-29): > 100 µM (inactive)
GI50 (RPMI-8226): > 100 µM (inactive)
GI50 (IGROV-1): > 100 µM (inactive)
GI50 (SNB-75): > 100 µM (inactive)
GI50 (HOP-92): > 100 µM (inactive)
GI50 (SNB-19): > 100 µM (inactive)
GI50 (CCRF-CEM): > 100 µM (inactive)
GI50 (OVCAR-4): > 100 µM (inactive)
GI50 (LOX IMVI): > 100 µM (inactive)
GI50 (BT-549): > 100 µM (inactive)
GI50 (RXF 393): > 100 µM (inactive)
GI50 (OVCAR-5): > 100 µM (inactive)

CCC/C=C/C=C/C1CC(O)C(O)C(=O)C1CO (stereo not drawn)
GI50 (KM12): > 100 µM (inactive)
GI50 (UO-31): > 100 µM (inactive)
GI50 (MCF7): > 100 µM (inactive)
GI50 (SW-620): > 100 µM (inactive)
GI50 (HCT-15): > 100 µM
GI50 (MDA-MB-435): > 100 µM (inactive)
GI50 (HT-29): > 100 µM (inactive)
GI50 (RPMI-8226): > 100 µM (inactive)
GI50 (IGROV-1): > 100 µM (inactive)
GI50 (SNB-75): > 100 µM (inactive)
GI50 (HOP-92): > 100 µM (inactive)
GI50 (SNB-19): > 100 µM (inactive)
GI50 (CCRF-CEM): > 100 µM (inactive)
GI50 (OVCAR-4): > 100 µM (inactive)
GI50 (LOX IMVI): > 100 µM (inactive)
GI50 (BT-549): > 100 µM (inactive)
GI50 (RXF 393): > 100 µM (inactive)
GI50 (OVCAR-5): > 100 µM (inactive)

O=C(c1cccnc1)N1N=C(c2ccc3c(c2)OCO3)CC1(O)c1cc(F)c(Cl)cc1Cl (stereo not drawn)
GI50 (KM12): 26.9 µM (inactive)
GI50 (UO-31): 17.3 µM (inactive)
GI50 (Malme-3M): 23.4 µM (inactive)
GI50 (SW-620): 23.8 µM (inactive)
GI50 (HCT-15): 18 µM
GI50 (MDA-MB-435): 27 µM (inactive)
GI50 (HT-29): 17.7 µM (inactive)
GI50 (RPMI-8226): 27.2 µM (inactive)
GI50 (IGROV-1): 11.4 µM (inactive)
GI50 (SNB-75): 15.2 µM (inactive)
GI50 (HOP-92): 20.7 µM (inactive)
GI50 (SNB-19): 32.6 µM (inactive)
GI50 (CCRF-CEM): 19.1 µM (inactive)
GI50 (OVCAR-4): 22.4 µM (inactive)
GI50 (SR): 14.7 µM (inactive)
GI50 (LOX IMVI): 16.4 µM (inactive)
GI50 (BT-549): 20.9 µM (inactive)
GI50 (RXF 393): 12.7 µM (inactive)
GI50 (OVCAR-5): 22.3 µM (inactive)

O=C(c1cccs1)N(C(=O)N1CCCCC1)c1ccccc1
GI50 (KM12): > 100 µM (inactive)
GI50 (UO-31): 62.8 µM (inactive)
GI50 (Malme-3M): 2.25 µM (inactive)
GI50 (MCF7): > 100 µM (inactive)
GI50 (SW-620): > 100 µM (inactive)
GI50 (HCT-15): > 100 µM
GI50 (MDA-MB-435): > 100 µM (inactive)
GI50 (HT-29): > 100 µM (inactive)
GI50 (RPMI-8226): > 100 µM (inactive)
GI50 (IGROV-1): > 100 µM (inactive)
GI50 (SNB-75): 3.28 µM (inactive)
GI50 (SNB-19): > 100 µM (inactive)
GI50 (CCRF-CEM): > 100 µM (inactive)
GI50 (LOX IMVI): > 100 µM (inactive)
GI50 (BT-549): > 100 µM (inactive)
GI50 (RXF 393): 35 µM (inactive)

COc1cc2c(cc1OC)C(=O)/C(=C/c1cc(Cl)cc(Cl)c1)C2
GI50 (KM12): 1.38 µM (inactive)
GI50 (UO-31): > 100 µM (inactive)
GI50 (Malme-3M): 8.51 µM (inactive)
GI50 (MCF7): 2.99 µM (inactive)
GI50 (SW-620): 3.79 µM (inactive)
GI50 (HCT-15): 3.03 µM
GI50 (MDA-MB-435): 1.7 µM (inactive)
GI50 (HT-29): 2.59 µM (inactive)
GI50 (RPMI-8226): 4.94 µM (inactive)
GI50 (IGROV-1): 2.65 µM (inactive)
GI50 (SNB-75): 1.86 µM (inactive)
GI50 (HOP-92): 18.7 µM (inactive)
GI50 (SNB-19): > 26.4 µM (inactive)
GI50 (CCRF-CEM): 2.07 µM (inactive)
GI50 (OVCAR-4): 17.1 µM (inactive)
GI50 (LOX IMVI): 4.24 µM (inactive)
GI50 (BT-549): 7.26 µM (inactive)
GI50 (RXF 393): 7.41 µM (inactive)
GI50 (OVCAR-5): > 34.1 µM (inactive)

— ChEMBL document CHEMBL1201862, “PubChem BioAssay data set” (2004)
